Patent publication US20230152317A1, “DIAGNOSIS AND TREATMENT OF COVID-19” (priority 2020, published 2023)

Columns and labels:
[1] = tested on: human pulmonary microvascular endothelial cells (hPMVEC); assay: Basal intracellular nitric oxide production in hPMVEC (DAF-FM fluorescence) after hyaluronidase treatment
Description: Isolation and culture of human pulmonary microvascular endothelial cells (hPMVEC): hPMVEC were isolated from resected human lung as previously described (35, 36). Briefly, human peripheral lung tissue was finely minced, and digested in 0.3% type II collagenase at 37° C. The digested suspension was filtered, centrifuged, and washed in PBS. Endothelial cells were then isolated using magnetic Dynabeads coated with anti-human CD31 antibody. Isolated cells were resuspended in EGM-2 (Lonza #CC-3162) with 10% fetal bovine serum and placed at 37° C. in 5% CO2 until 50% confluent, then harvested and re-purified using anti-CD31-coated magnetic microbeads as above. PMVEC were propagated in EGM-2+10% FBS and 20 mM HEPES on fibronectin-coated flasks and passages 4-9 used.
Hyaluronidase treatment of hPMVEC: PMVEC (2.5×10^4/well) were plated on fibronectin-coated 4-well plates in EGM-2+10% FBS and 20 mM HEPES. After 2 days, media was changed to HBSS (+100 mM HEPES, no bicarb)+0.01% BSA and hPMVEC were treated for 1 h with hyaluronidase (0.5 mg/mL; Sigma #H3506). Following treatment, hPMVEC were loaded with a nitric oxide-sensitive fluorochrome (2 μM DAF-FM DA (Thermo Fisher #D23844) for 1h before lysing with 0.5% SDS in PBS. After centrifugation for 10 min at 1×10^4RCF, the fluorescence of triplicate aliquots of supernatant were measured using a Victor3 multilabel fluorescence microplate reader (Wallac Oy; Perkin Elmer, Inc.) at 485/520 for DAF-FM. The nitric oxide donor DETA NONOate (20 μM; Cayman #82120) was used as the positive control.

[2] = tested on: COVID-19 patients; conditions: anticoagulant treatment, reference 49; cited from earlier work

## NCCN(CCN)/[N+]([O-])=N/O [DETA NONOate]
[1]; positive control at 20 μM, compared to untreated controls (data not shown)
  increase of nitric oxide production: 16%

## Hyaluronidase
[1]; hyaluronidase 0.5 mg/mL for 1 h, compared to untreated PMVEC, n=5 separate experiments, P=0.008
  decrease of basal intracellular nitric oxide production: 98%
[1]; hyaluronidase 0.5 mg/mL for 1 h, n=5 separate experiments
  basal intracellular nitric oxide production after treatment (DAF-FM fluorescence): 64±87.5 RFUs

## low molecular weight heparin
[2]
  overall survival advantage: did not confer an overall survival advantage
